Measured values taken from patent EP3714904B1, “IMINODIACETIC ACID SUBSTITUTED CYCLODEXTRINS AS POTENTIATORS OF BETA-LACTAM ANTIBIOTICS” (NATIONAL CENTER FOR SCIENTIFIC RESEARCH "DEMOKRITOS" (NCSRD), priority 2019, dated 2020).

Assays:
[1] = molecular target: T1, MBL containing crude enzyme preparation (Kpn LA-26 NDM-1) (Klebsiella pneumoniae, UniProt C7C422); test: 1H NMR monitoring of meropenem hydrolysis by MBL crude enzyme preparation; type: biochemical; conditions: meropenem 0.18 mM
T1 construct: an MBL containing crude enzyme preparation (Kpn LA-26 NDM-1, 485 µL); endogenous in cells; host or cells: Klebsiella pneumoniae clinical strain LA-26 (crude enzyme preparation)
T1 sequence (C7C422 29-270 limits assumed): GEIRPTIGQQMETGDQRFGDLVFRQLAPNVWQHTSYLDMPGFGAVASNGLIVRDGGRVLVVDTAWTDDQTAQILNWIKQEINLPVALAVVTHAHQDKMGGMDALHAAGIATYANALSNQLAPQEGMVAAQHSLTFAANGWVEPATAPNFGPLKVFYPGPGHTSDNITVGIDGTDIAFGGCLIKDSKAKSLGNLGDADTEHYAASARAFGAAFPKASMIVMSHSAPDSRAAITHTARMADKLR

[2] = tested on: NDM producing K. pneumoniae clinical strain LA26; test: Murine sepsis model: 2-hour intervals treatment scheme; type: in vivo, CD-1 mice; conditions: for mice protected (survival): intraperitoneal, 140 hours
Description: Example 7. […] The animals were rendered neutropenic (<100 neutrophils/mm^3) by intraperitoneal injection of 150 and 100 mg/kg of cyclophosphamide at day -4 and day -1, respectively, before infection. […] The meropenem/ β-IDACYD combination was administrated in all dosing schemes simultaneously. […] Blood samples were taken 0, 6, 24 hours and 7 days after injection of a single dose of antibiotic (five infected animals for each timepoint) were serially diluted in normal saline (10^-1 to 10^-9) and plated on MH agar plates which were incubated for 16 hours at 37°C for determination of viable organisms. All mice that were alive were euthanised 7 days post infection and spleen and liver were harvested. The organs were placed into 1 mL of normal saline on ice and then homogenised. The organ homogenates were then serially diluted in normal saline (10^-1 to 10^-9) and plated on MH agar for CFU enumeration. Without therapy 90% of mice succumbed to the infection within 24 hours. […] Finally, the bacterial load in the spleen was relieved by 4.2 log10 compared to that of the antibiotic itself. In Fig.6 is shown the bacterial load (CFU/mL) (A) and survival percentage (B) of CD-1 mice infected with a lethal dose (10^7 CFU) of NDM-1 producing K. pneumoniae strain LA26. […] Treatment (initiated at 2 hours post infection) was given every 2h for a 24h period and blood was drawn 0 h, 6 h, 24 h and 140 h post treatment initiation. All groups were of n=10. Spleen and liver (C) from n=5 mice were also removed at 140 h post-treatment initiation the bacterial load [log (CFU/organ)] was determined. Error bars are indicative of SEM (n=2 replicates).

[3] = tested on: NDM-1 producing K. pneumoniae clinical strain LA 26; test: Murine sepsis model: single dose treatment scheme-1; type: in vivo, CD-1 mice
Description: Example 8. In-vivo murine sepsis model: Single dose treatment scheme-1: Neutropenic 7-8 weeks old CD-1 female mice weighing 29 to 32 grams were infected interperitoneally with a lethal dose (10^7 CFU) of the NDM-1 producing K. pneumoniae clinical strain LA 26 as described previously. […] The meropenem/ β-IDACYD combination was administrated in all dosing schemes simultaneously. Blood samples were taken 0, 6, 24 hours and 3 days after injection of a single dose of antibiotic (five infected animals for each timepoint) and were serially diluted in normal saline (10^-1 to 10^-9) and plated on MH agar plates which were incubated for 16 hours at 37 °C for determination of viable organisms. All mice were euthanised 3 days post infection and spleen and liver were harvested. Organs were placed into 1 mL of normal saline on ice and then homogenised. Organ homogenates were then serially diluted in normal saline (10^-1 to 10^-9) and plated on MH agar plates for CFU enumeration. In the absence of therapy 30% of mice remained alive 70 hours post infection. […] The bacterial burden in the blood 70 hours post treatment was relieved by 4.8log10 in the presence of 120 mg/kg of β-IDACYD compared to that of the antibiotic monotherapy. […] In Fig. 7 is shown the bacterial load (CFU/mL) and survival percentage of CD-1 mice infected with a lethal dose (10^7 CFU) of NDM-1 producing K. pneumoniae strain LA26. […] Treatment was given in a form of a single shot 2h after infection and blood was drawn 0h, 6h, 24h and 70h post treatment initiation. All groups were of n=10. Error bars are indicative of SEM (n=2 replicates).

NDM-1 = NDM-1 (Klebsiella pneumoniae, UniProt C7C422); test: Spectrophotometric IC50 determination against MBL; type: biochemical; conditions: ± 0.32
Chain of NDM-1 (C7C422 29-270, looked up): as the sequence (C7C422 29-270 limits assumed) above

[4] = tested on: NDM, VIM and IMP producing K. pneumoniae clinical isolates; test: Time kill assays; type: cell-based
Description: In Fig. 3 the results of the time-kill assays are shown. […] Results are expressed as log10 CFU/mL. Experiments were performed in duplicate. Antibiotic-free control cultures were included in each set of experiments as controls. Error bars are indicative of standard error mean (SEM) (n=2 replicates).

VIM-1 = VIM-1 (Pseudomonas aeruginosa, UniProt A0A0F7KYQ8); test: Spectrophotometric IC50 determination against MBL; type: biochemical; conditions: ± 1.07
[5] = single dose 30 mg/kg meropenem + 120 mg/kg β-IDACYD

| SMILES | drug hydrolyzed ([1]; absence of β-IDACYD, 6 h incubation) [%] | mice protected (survival) ([2]; meropenem monotherapy 30 mg/kg every 2 h for 24 h) [%] | survival ([3]; meropenem monotherapy, single dose 30 mg/kg, 70 hours post infection) [%] | hydrolysis of meropenem in the presence of β-IDACYD ([1]; β-IDACYD 1.9 mM, over a 12 h period) | cell morphology under a microscope (L929 fibroblast cells) | IC50 (NDM-1) [µM] | reduction of the bacterial load (CFU/mL) compared to that of the antibiotic alone ([4]; 50 µM β-IDACYD with meropenem or imipenem at MIC or 2xMIC, 24 hour incubation, strains LA26, LA 109/16, 5742) [log10] | bacterial load in time-kill assay ([4]; β-IDACYD 50 µM added to MIC or 2xMIC meropenem or imipenem) | IC50 (VIM-1) [µM] | mice protected (survival) ([2]; 30 mg/kg meropenem + 20 mg/kg β-IDACYD every 2 h for 24 h) [%] | reduction of the bacterial load in the spleen compared to the antibiotic itself ([2]; 30 mg/kg meropenem + 20 mg/kg β-IDACYD every 2 h for 24 h, 140 h) [log10] | reduction of the bacterial load in blood compared to meropenem monotherapy ([2]; 30 mg/kg meropenem + 20 mg/kg β-IDACYD every 2 h for 24 h, 140 hours post treatment initiation) [log10] | reduction of bacterial load in the liver [3, 5] [log10] | reduction of bacterial load in the spleen [3, 5] [log10] | mice rescued (survival) ([3]; single dose 30 mg/kg meropenem + 120 mg/kg β-IDACYD, 70 hours) [%] | reduction of bacterial burden in the blood compared to antibiotic monotherapy ([3]; single dose 30 mg/kg meropenem + 120 mg/kg β-IDACYD, 70 hours post treatment) [log10] |
| --- | --- | --- | --- | --- | --- | --- | --- | --- | --- | --- | --- | --- | --- | --- | --- | --- |
| C[C@@H](O)[C@H]1C(=O)N2C(C(=O)O)=C(S[C@@H]3CN[C@H](C(=O)N(C)C)C3)[C@H](C)[C@H]12 [Meropenem, reference compound] | ~100 | 80 | 30 | – | – | – | – | – | – | – | – | – | – | – | – | – |
| CO[C@@H]1[C@@H](OC)[C@H]2O[C@H]3[C@H](OC)[C@@H](OC)[C@@H](O[C@H]4[C@H](OC)[C@@H](OC)[C@@H](O[C@H]5[C@H](OC)[C@@H](OC)[C@@H](O[C@H]6[C@H](OC)[C@@H](OC)[C@@H](O[C@H]7[C@H](OC)[C@@H](OC)[C@@H](O[C@H]8[C@H](OC)[C@@H](OC)[C@@H](O[C@@H]1[C@@H](CN(CC(=O)O)CC(=O)O)O2)O[C@@H]8CN(CC(=O)O)CC(=O)O)O[C@@H]7CN(CC(=O)O)CC(=O)O)O[C@@H]6CN(CC(=O)O)CC(=O)O)O[C@@H]5CN(CC(=O)O)CC(=O)O)O[C@@H]4CN(CC(=O)O)CC(=O)O)O[C@@H]3CN(CC(=O)O)CC(=O)O [β-IDACYD] | – | – | – | no signals of hydrolysis of the drug could be observed | did not present any morphological differences characteristic of cytotoxicity | 1.63 | > 8 | bacterial load remains close to zero | 15 | 90 | 4.2 | 4.0 | 1.4 | 3.8 | 60 | 4.8 |
